Data on nine compounds can be found in ChEMBL document CHEMBL1201862, “PubChem BioAssay data set” (2004).

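Results reflect a 48-hour exposure of cells in 96-well plates to compound at five concentrations. Here, GI50 denotes the concentration required for 50% inhibition of growth.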 Active and inactive are the calls of the source. Cut-off read from the data, not from the text of the source: active = GI50 up to about 1.1 µM and inactive = higher. Bounds are passed on as bounds.

Common to all, as to assay: DTP human tumour cell line panel, 48 h
The subject of test [1] is RPMI-8226.
The subject of test [2] is UACC-257.
Test [3] deals with HOP-92.
The test system of test [4] is EKVX.
Test [5] deals with SNB-75.
Test [6] has as its system OVCAR-3.
The test system of test [7] is SF-295.
For test [8], the system named is HCT-116.
Test [9] relates to LXFL 529.
The test system of test [10] is MOLT-4.
Test [11] concerns OVCAR-5.
In test [12] the test system is DLD-1.
Test [13] concerns OVCAR-8.
Test [14] concerns XF498.
In test [15] the test system is UACC-62.
Test [16] concerns HCC 2998.
Test [17] relates to BT-549.
The subject of test [18] is NCI/ADR-RES.
For test [19], the system named is MDA-MB-435.
The subject of test [20] is T47D.

Regarding `CC1(C)CCC[C@@]2(C)C1CCC1(C)C(CCc3ccoc3)/C(=C/OS(=O)(=O)O)CCC12` (some centres undefined), the GI50 in test [1] was 33.7 µM (inactive); in test [2], > 100 µM (inactive); in test [3], 23.9 µM (inactive); in test [4], > 100 µM (inactive); in [5], > 100 µM (inactive); in [6] it was > 100 µM (inactive). Also, the GI50 in test [7] is 49.9 µM (inactive); in [8] it was 16.5 µM (inactive); in test [9], 50 µM (inactive); in test [10], 23.6 µM (inactive); in test [11] it was > 100 µM (inactive); in test [12], 34.5 µM (inactive). Also, the GI50 in [13], in test [14], in [15] and in test [16] was > 100 µM (inactive) throughout.
Consider `CCCc1c(C(=O)OCC)[nH]c(C(=O)CCC(=O)c2[nH]c(C(=O)OCC)c(CCC)c2C(=O)OCC)c1C(=O)OCC`, for which the GI50 in [1] is > 100 µM (inactive); in [2] it was > 100 µM (inactive); in [3], > 100 µM (inactive); in test [4], > 100 µM (inactive); in test [5], 19.1 µM (inactive); in test [6], 68.5 µM (inactive). The GI50 in test [7], in [8], in test [9], in test [10], in test [11] and in [12] was > 100 µM (inactive) throughout. In addition, the GI50 in [13] is > 100 µM (inactive); in test [14], 54.3 µM (inactive); in [15], > 100 µM (inactive); in test [16], > 100 µM (inactive).
`O=C(CC(CC(=O)Oc1c(Br)cc(Br)cc1C(=O)O)C(=O)Oc1c(Br)cc(Br)cc1C(=O)O)Oc1c(Br)cc(Br)cc1C(=O)O`: the GI50 is 33.7 µM (inactive) in [1]; 83.6 µM (inactive) in [2]; 16.5 µM (inactive) in [3]; 44.9 µM (inactive) in test [4]; 26.1 µM (inactive) in test [5]; 47.8 µM (inactive) in test [6]. For the same compound, the GI50 was 71.3 µM (inactive) in test [7]; 43.6 µM (inactive) in test [8]; 58.6 µM (inactive) in test [9]; 46.5 µM (inactive) in test [10]; 45.1 µM (inactive) in test [11]; 65 µM (inactive) in test [12]. Moreover, the GI50 in [13] is 19.3 µM (inactive); in [14] it was 0.504 µM (active); in test [15] it was 49.9 µM (inactive); in test [16] it was 42.3 µM (inactive).
Turning to `Cc1ccc(S(=O)(=O)SCc2ccccc2CSS(=O)(=O)c2ccc(C)cc2)cc1`, the GI50 in test [1] was 17.5 µM (inactive); in test [2], 71.9 µM (inactive); in test [3], 21.7 µM (inactive); in test [4], 44.4 µM (inactive); in test [5] it was 57.7 µM (inactive); in [6], 20.5 µM (inactive). Moreover, the GI50 in [7] is 79.8 µM (inactive); in test [8], 21.3 µM (inactive); in test [9] it was 15.5 µM (inactive); in [10], 16 µM (inactive); in test [11], > 10 µM (inactive); in [12], 15.2 µM (inactive). The GI50 in [13] is 24.5 µM (inactive); in test [14], 24.2 µM (inactive); in test [15] it was 15.8 µM (inactive); in [16], 75.2 µM (inactive).
For `CCOC(=O)Nc1nc2cc(Cn3cccc3)ccc2[nH]1`, the GI50 was 0.925 µM (active) in test [1]; 3.82 µM (inactive) in test [2]; > 20.2 µM (inactive) in [17]; 32.2 µM (inactive) in [3]; 27.7 µM (inactive) in test [4]; 0.356 µM (active) in test [5]. Moreover, the GI50 in test [6] is 1.13 µM (inactive); in [18], 0.387 µM (active); in test [7] it was 0.807 µM (active); in test [8], 1.02 µM (active); in test [9], 4.16 µM (inactive); in test [10], 0.64 µM (active). Besides, the GI50 is 16 µM (inactive) in [11]; 3.93 µM (inactive) in test [12]; 0.123 µM (active) in [19]; 2.39 µM (inactive) in test [13]; 3.5 µM (inactive) in test [14]; 0.828 µM (active) in [15]. For the same compound, the GI50 in test [16] was 2.47 µM (inactive).
Turning to `C=C(CN(C)C)C(=O)c1ccccc1`, the GI50 in test [1] was 4.13 µM (inactive); in [2] it was 11.5 µM (inactive); in [17], 11.2 µM (inactive); in test [3], 2.06 µM (inactive); in test [4], 21.8 µM (inactive); in [5], 17 µM (inactive). Besides, the GI50 in test [6] was 3.63 µM (inactive); in test [18] it was 32 µM (inactive); in test [7], 31.4 µM (inactive); in [8] it was 5.51 µM (inactive); in [9], 2.15 µM (inactive); in test [10] it was 1.91 µM (inactive). Also, the GI50 in [11] is 16.5 µM (inactive); in test [12] it was 2.11 µM (inactive); in [19], 14.1 µM (inactive); in [13] it was 19.5 µM (inactive); in [14] it was 15.4 µM (inactive); in test [15] it was 14.8 µM (inactive). For the same compound, the GI50 was 18 µM (inactive) in [16] and 2.25 µM (inactive) in [20].
`C=C(CN(C)C)C(=O)c1ccc(Oc2ccccc2)cc1`: the GI50 in test [1] is 0.962 µM (active); in [2], 8.36 µM (inactive); in test [17], 6.18 µM (inactive); in test [3], 2.18 µM (inactive); in [4], 16.9 µM (inactive); in test [5] it was 15.9 µM (inactive). Further, the GI50 in test [6] is 4.86 µM (inactive); in test [18] it was 6.75 µM (inactive); in test [7], 16.7 µM (inactive); in [8], 2.16 µM (inactive); in test [9] it was 2.2 µM (inactive); in test [10] it was 0.356 µM (active). For the same compound, the GI50 in test [11] is 7.4 µM (inactive); in test [12] it was 2.22 µM (inactive); in test [19], 3.85 µM (inactive); in test [13], 3.28 µM (inactive); in [14], 14.8 µM (inactive); in test [15], 4.39 µM (inactive). In addition, the results for the GI50 in [16] and in test [20] were 17.5 µM (inactive) and 2.7 µM (inactive), respectively.
For `O=C1CCC(=O)c2sccc2N1`, the GI50 in [1], in test [2], in test [3], in [4], in test [5] and in [6] was > 100 µM (inactive) in each case. The GI50 in test [7], in test [8], in test [9], in test [10], in [11] and in test [12] was > 100 µM (inactive) throughout. The GI50 in test [13], in [14] and in test [16] was > 100 µM (inactive) each time.
In the case of `Nc1ncnc2c1nnn2C1C=C(CO)C(O)C1O` (centres undefined), the GI50 is 20.3 µM (inactive) in test [1]; > 100 µM (inactive) in test [2]; 14.3 µM (inactive) in test [3]; > 100 µM (inactive) in test [4]; 30.9 µM (inactive) in test [5]; > 100 µM (inactive) in test [6]. Moreover, the GI50 in test [7] is > 100 µM (inactive); in [8] it was 27.8 µM (inactive); in test [9], > 100 µM (inactive); in test [10] it was > 100 µM (inactive); in test [11], 48.3 µM (inactive); in test [12], 35.2 µM (inactive). Besides, the GI50 in test [13] was 39.4 µM (inactive); in test [14], > 100 µM (inactive); in test [15] it was > 100 µM (inactive); in test [16], 22.5 µM (inactive).

Broadly, the GI50 is the concentration that inhibits growth by half.
